Measured values published in article PMC9780108, “An intrinsically disordered antimicrobial peptide dendrimer from stereorandomized virtual screening” (Cell Reports. Physical Science, 2022).
Converted amounts (≈) assume the structure as drawn. Positions of bridges follow the written chain, without caps; N, C: chain ends. Non-standard residues stand in square brackets, D forms with d. Residues, ends and D or L forms follow the SMILES beside them. Groups on a side chain read outwards from the residue. Chains are numbered I, II in the order given. *: point of attachment. X3 = CC(C)C[C@H](NC(=O)CCCCCN)C(=O)NCCCC[C@H](NC(=O)[C@H](CC(C)C)NC(=O)CCCCCN)C(=O)*; Ahx = NCCCCCC(=O)O

Legend:
[1] = system: HEK293 cell line; type: cell-based; details: 48 h
Procedure: HEK 293 cell line were cultured and maintained in DMEM (Dulbeccos modified Eagle
medium, Sigma Aldrich) supplemented with 10% FBS (Sigma Aldrich) and 1%
penicillin/streptomycin. Cells were incubated in a humidified incubator at 37°C in the presence
HEK 293 cell were seeded into 96 well plates at the density of 2 × 10^3 cells/well and incubated
in DMEM containing 10% FBS for 10-14 hours at 37°C in the presence of 5% CO2. The next
day, stock solution of compounds were prepared at concentration of 2 mg/mL in DMEM
containing 10% FBS. 1/2 or 1/3 serial dilution of the peptide dendrimers from 2 mg/mL or 200
µg/mL were performed in DMEM containing 10% FBS. The medium was removed from cell
culture and replaced with the compounds at different concentration after washing with PBS.
The cells were incubated in DMEM containing 10% FBS at 37°C in the presence of 5% CO 2.
Negative control was untreated cell culture without compounds and blank control was wells
without cell but only medium. After 48 hours, a final concentration of 10% AlamarBlue®
(Thermo Fisher Scientific, Reinach, CH) was added to each well . The cells were incubated for
3-5 hours at 37°C with 5% CO 2. The fluorescence was then measured on a Tecan Infinite
M1000 Pro plate reader at λex = 560 nm and λem = 590 nm. The value was normalized
according to the untreated cells.

[2] = system: E. coli W3110; details: for MIC at pH 5.0, E. coli W3110: W3110, pH 5; for MIC at pH 7.4, E. coli W3110: W3110, pH 7.4; for MIC at pH 8.0, E. coli W3110: W3110, pH 8
[3] = system: A. baumannii ATCC 19606; details: for MIC at pH 5.0, A. baumannii ATCC 19606: ATCC 19606, pH 5; for MIC at pH 7.4, A. baumannii ATCC 19606: ATCC 19606, pH 7.4; for MIC at pH 8.0, A. baumannii ATCC 19606: ATCC 19606, pH 8
[4] = system: P. aeruginosa PAO1; details: for MIC at pH 5.0, P. aeruginosa PAO1: PAO1, pH 5; for MIC at pH 7.4, P. aeruginosa PAO1: PAO1, pH 7.4; for MIC at pH 8.0, P. aeruginosa PAO1: PAO1, pH 8
[5] = system: K. pneumoniae NCTC 418; details: for MIC at pH 5.0, K. pneumoniae NCTC 418: NCTC 418, pH 5; for MIC at pH 7.4, K. pneumoniae NCTC 418: NCTC 418, pH 7.4; for MIC at pH 8.0, K. pneumoniae NCTC 418: NCTC 418, pH 8
[6] = system: S aureus COL (methicillin-resistant Staphylococcus aureus); details: for MIC at pH 5.0, S aureus COL: COL (methicillin-resistant, pH 5); for MIC at pH 7.4, S aureus COL: COL (methicillin-resistant, pH 7.4); for MIC at pH 8.0, S aureus COL: COL (methicillin-resistant, pH 8)

MIC at pH 5.0, E. coli W3110 [2]	MIC at pH 7.4, E. coli W3110 [2]	MIC at pH 8.0, E. coli W3110 [2]	MIC at pH 5.0, A. baumannii ATCC 19606 [3] [μg/mL]	MIC at pH 7.4, A. baumannii ATCC 19606 [3] [μg/mL]	MIC at pH 8.0, A. baumannii ATCC 19606 [3] [μg/mL]	MIC at pH 5.0, P. aeruginosa PAO1 [4]	MIC at pH 7.4, P. aeruginosa PAO1 [4]	MIC at pH 8.0, P. aeruginosa PAO1 [4]	MIC at pH 5.0, K. pneumoniae NCTC 418 [5]	MIC at pH 7.4, K. pneumoniae NCTC 418 [5]	MIC at pH 8.0, K. pneumoniae NCTC 418 [5]	MIC at pH 5.0, S aureus COL [6] [μg/mL]	MIC at pH 7.4, S aureus COL [6] [μg/mL]	MIC at pH 8.0, S aureus COL [6] [μg/mL]	SMILES	IC50 HEK293 [1] [µg/mL]
32 μg/mL	8 μg/mL	8 μg/mL	16	4	4	32 μg/mL	8 μg/mL	8 μg/mL	> 64 μg/mL	32 μg/mL	16 μg/mL	> 64	> 64	32	CC(C)C[C@H](NC(=O)[C@H](CC(C)C)NC(=O)[C@H](CCCCN)NC(=O)[C@H](CCCCNC(=O)[C@H](CC(C)C)NC(=O)[C@H](CC(C)C)NC(=O)[C@H](CCCCNC(=O)[C@H](CC(C)C)NC(=O)[C@H](CCCCN)NC(=O)[C@H](CCCCNC(=O)[C@H](CC(C)C)NC(=O)[C@@H](N)CCCCN)NC(=O)[C@H](CC(C)C)NC(=O)[C@@H](N)CCCCN)NC(=O)[C@H](CC(C)C)NC(=O)[C@H](CCCCN)NC(=O)[C@H](CCCCNC(=O)[C@H](CC(C)C)NC(=O)[C@@H](N)CCCCN)NC(=O)[C@H](CC(C)C)NC(=O)[C@@H](N)CCCCN)NC(=O)[C@H](CC(C)C)NC(=O)[C@H](CC(C)C)NC(=O)[C@H](CCCCNC(=O)[C@H](CC(C)C)NC(=O)[C@H](CCCCN)NC(=O)[C@H](CCCCNC(=O)[C@H](CC(C)C)NC(=O)[C@@H](N)CCCCN)NC(=O)[C@H](CC(C)C)NC(=O)[C@@H](N)CCCCN)NC(=O)[C@H](CC(C)C)NC(=O)[C@H](CCCCN)NC(=O)[C@H](CCCCNC(=O)[C@H](CC(C)C)NC(=O)[C@@H](N)CCCCN)NC(=O)[C@H](CC(C)C)NC(=O)[C@@H](N)CCCCN)C(N)=O [L-T25, reference compound] (HELM PEPTIDE1{K.L.K.K.L.K.L.L.K.K.L.L.[am]}|PEPTIDE2{K.L}|PEPTIDE3{K.L.K.K.L.K.L.L}|PEPTIDE4{K.L}|PEPTIDE5{K.L.K.K.L}|PEPTIDE6{K.L}|PEPTIDE7{K.L.K.K.L}|PEPTIDE8{K.L}$PEPTIDE1,PEPTIDE2,3:R3-2:R2|PEPTIDE3,PEPTIDE4,3:R3-2:R2|PEPTIDE5,PEPTIDE6,3:R3-2:R2|PEPTIDE7,PEPTIDE8,3:R3-2:R2|PEPTIDE1,PEPTIDE7,6:R3-5:R2|PEPTIDE1,PEPTIDE3,9:R3-8:R2|PEPTIDE3,PEPTIDE5,6:R3-5:R2$$$V2.0)	92 ± 3 (≈ 19.9 µM)
16/16/16 μg/mL	16/16/16 μg/mL	16/16/16 μg/mL	16	32	16	16 μg/mL	32 μg/mL	16 μg/mL	> 64 μg/mL	> 64 μg/mL	32 μg/mL	> 64	> 64	16	CC(C)C[C@H](NC(=O)[C@H](CC(C)C)NC(=O)[C@H](CC(C)C)NC(=O)[C@H](CCCCNC(=O)[C@H](CC(C)C)NC(=O)[C@H](CC(C)C)NC(=O)[C@H](CCCCNC(=O)[C@H](CCCCN)NC(=O)[C@H](CC(C)C)NC(=O)[C@H](CCCCNC(=O)[C@H](CC(C)C)NC(=O)[C@@H](N)CCCCN)NC(=O)[C@H](CC(C)C)NC(=O)[C@@H](N)CCCCN)NC(=O)[C@H](CCCCN)NC(=O)[C@H](CC(C)C)NC(=O)[C@H](CCCCNC(=O)[C@H](CC(C)C)NC(=O)[C@@H](N)CCCCN)NC(=O)[C@H](CC(C)C)NC(=O)[C@@H](N)CCCCN)NC(=O)[C@H](CC(C)C)NC(=O)[C@H](CC(C)C)NC(=O)[C@H](CCCCNC(=O)[C@H](CCCCN)NC(=O)[C@H](CC(C)C)NC(=O)[C@H](CCCCNC(=O)[C@H](CC(C)C)NC(=O)[C@@H](N)CCCCN)NC(=O)[C@H](CC(C)C)NC(=O)[C@@H](N)CCCCN)NC(=O)[C@H](CCCCN)NC(=O)[C@H](CC(C)C)NC(=O)[C@H](CCCCNC(=O)[C@H](CC(C)C)NC(=O)[C@@H](N)CCCCN)NC(=O)[C@H](CC(C)C)NC(=O)[C@@H](N)CCCCN)C(N)=O [L-X18] (HELM PEPTIDE1{K.L.K.L.K.K.L.L.K.L.L.L.[am]}|PEPTIDE2{K.L}|PEPTIDE3{K.L.K.L.K.K.L.L}|PEPTIDE4{K.L}|PEPTIDE5{K.L.K.L.K}|PEPTIDE6{K.L}|PEPTIDE7{K.L.K.L.K}|PEPTIDE8{K.L}$PEPTIDE1,PEPTIDE2,3:R3-2:R2|PEPTIDE3,PEPTIDE4,3:R3-2:R2|PEPTIDE5,PEPTIDE6,3:R3-2:R2|PEPTIDE7,PEPTIDE8,3:R3-2:R2|PEPTIDE1,PEPTIDE7,6:R3-5:R2|PEPTIDE1,PEPTIDE3,9:R3-8:R2|PEPTIDE3,PEPTIDE5,6:R3-5:R2$$$V2.0)	52 ± 4 (≈ 11.3 µM)
32 μg/mL	> 64 μg/mL	32 μg/mL	32	64	32	64/>64/64 μg/mL	64/>64/64 μg/mL	64/>64/64 μg/mL	>64/>64/>64 μg/mL	>64/>64/>64 μg/mL	>64/>64/>64 μg/mL	> 64	> 64	32	CC(C)C[C@H](NC(=O)[C@H](CC(C)C)NC(=O)[C@H](CC(C)C)NC(=O)[C@H](CCCCNC(=O)[C@H](CC(C)C)NC(=O)[C@H](CC(C)C)NC(=O)[C@H](CCCCNC(=O)[C@H](CCCCN)NC(=O)[C@H](CC(C)C)NC(=O)[C@H](CCCCNC(=O)[C@H](CC(C)C)NC(=O)CCCCCN)NC(=O)[C@H](CC(C)C)NC(=O)CCCCCN)NC(=O)[C@H](CCCCN)NC(=O)[C@H](CC(C)C)NC(=O)[C@H](CCCCNC(=O)[C@H](CC(C)C)NC(=O)CCCCCN)NC(=O)[C@H](CC(C)C)NC(=O)CCCCCN)NC(=O)[C@H](CC(C)C)NC(=O)[C@H](CC(C)C)NC(=O)[C@H](CCCCNC(=O)[C@H](CCCCN)NC(=O)[C@H](CC(C)C)NC(=O)[C@H](CCCCNC(=O)[C@H](CC(C)C)NC(=O)CCCCCN)NC(=O)[C@H](CC(C)C)NC(=O)CCCCCN)NC(=O)[C@H](CCCCN)NC(=O)[C@H](CC(C)C)NC(=O)[C@H](CCCCNC(=O)[C@H](CC(C)C)NC(=O)CCCCCN)NC(=O)[C@H](CC(C)C)NC(=O)CCCCCN)C(N)=O [L-aX18] (I: H-[Ahx]LK([Leu-Ahx])LKK([Lys-Leu-X3])LLKLLL-NH2 / II: H-[Ahx]LK([Leu-Ahx])LKK([Lys-Leu-X3])LL; amide I:9-II:C)	14 ± 0.6 (≈ 3.12 µM)
2 μg/mL	4 μg/mL	4 μg/mL	2	4	4	16 μg/mL	8 μg/mL	16 μg/mL	64 μg/mL	8 μg/mL	8 μg/mL	64	16	4	CC(C)C[C@H](NC(=O)CCCCCN)C(=O)NCCCC[C@H](NC(=O)[C@H](CC(C)C)NC(=O)CCCCCN)C(=O)N[C@@H](CC(C)C)C(=O)NCCCC[C@H](NC(=O)[C@H](CC(C)C)NC(=O)[C@H](CCCCNC(=O)[C@H](CC(C)C)NC(=O)CCCCCN)NC(=O)[C@H](CC(C)C)NC(=O)CCCCCN)C(=O)N[C@@H](CCCCN)C(=O)N[C@@H](CC(C)C)C(=O)N[C@@H](CC(C)C)C(=O)NCCCC[C@H](NC(=O)[C@H](CC(C)C)NC(=O)[C@H](CC(C)C)NC(=O)[C@H](CCCCN)NC(=O)[C@H](CCCCNC(=O)[C@H](CC(C)C)NC(=O)[C@H](CCCCNC(=O)[C@H](CC(C)C)NC(=O)CCCCCN)NC(=O)[C@H](CC(C)C)NC(=O)CCCCCN)NC(=O)[C@H](CC(C)C)NC(=O)[C@H](CCCCNC(=O)[C@H](CC(C)C)NC(=O)CCCCCN)NC(=O)[C@H](CC(C)C)NC(=O)CCCCCN)C(=O)N[C@@H](CC(C)C)C(=O)N[C@@H](CCCCN)C(=O)N[C@@H](CCCCN)C(N)=O [L-aX22] (I: H-[Ahx]LK([Leu-Ahx])LK([Leu-X3])KLLKLKK-NH2 / II: H-[Ahx]LK([Leu-Ahx])LK([Leu-X3])KLL; amide I:9-II:C)	24 ± 3 (≈ 5.64 µM)
